Results on twelve compounds are retold here after ChEMBL document CHEMBL1201862, “PubChem BioAssay data set” (2004).

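Method: 48-hour compound exposure of cells in 96-well plates, five concentrations, linear interpolation of endpoints. At the GI50, growth is halved.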 Active and inactive are the calls of the source. Cut-off read from the data, not from the text of the source: active = GI50 up to about 1.1 µM and inactive = higher. Where only a bound is given, the exact number is not on record here.

Among the test systems are SK-MEL-2; NCI-H226; MOLT-4; HCT-15; ACHN; KM12; 786-0; OVCAR-4; NCI-H522; T47D; HT-29; Malme-3M; A498; IGROV-1; SF-268; SK-MEL-5; UACC-257; PC-3; OVCAR-3; HCT-116.
Common to all, as to experiment: NCI-60 cell line screen, 48 h

With `CCOc1cc2c(c(OCC)c1O)CC[C@@H]1[C@@H]2CC[C@]2(C)[C@@H](O)CC[C@@H]12`, the GI50 in the assay with SK-MEL-2 was 14 µM (inactive); with NCI-H226, 15.9 µM (inactive); in the assay with MOLT-4 it was 0.681 µM (active); in the assay with HCT-15 it was 0.289 µM; in the assay with ACHN, 1.11 µM (active); in the assay with KM12 it was 6.03 µM (inactive). The GI50 in the assay on 786-0 was 2.45 µM (inactive); with OVCAR-4, 51.8 µM (inactive); with NCI-H522, 0.61 µM (active); with T47D it was 2.33 µM (inactive); in the assay on HT-29, 8.38 µM (inactive); in the assay on Malme-3M, 2.29 µM (inactive). In addition, the GI50 in the assay with A498 was 5.21 µM (inactive); with IGROV-1, 6.76 µM (inactive); with SF-268 it was 4.79 µM (inactive); in the assay on SK-MEL-5, 1.21 µM (inactive).

With `Cc1cc(Br)cc(C)c1NC(=O)C(=O)C1C(=O)C(CC2C(=O)c3ccccc3C2=O)C(=O)CC1(C)C` (stereo unspecified), the GI50 with SK-MEL-2 was > 100 µM (inactive); in the assay on UACC-257, > 100 µM (inactive); in the assay on NCI-H226, 67.5 µM (inactive); with MOLT-4, 18.1 µM (inactive); in the assay with HCT-15, 63.5 µM; in the assay on PC-3, 60.7 µM (inactive). Also, the GI50 is > 100 µM (inactive) in the assay with OVCAR-3; > 100 µM (inactive) in the assay on ACHN; > 100 µM (inactive) with KM12; > 100 µM (inactive) in the assay with 786-0; 39.5 µM (inactive) in the assay on OVCAR-4; 44.5 µM (inactive) in the assay on NCI-H522. The GI50 was 83.2 µM (inactive) in the assay with HCT-116; > 100 µM (inactive) in the assay with HT-29; 29.9 µM (inactive) in the assay with IGROV-1; > 100 µM (inactive) with SF-268; > 100 µM (inactive) in the assay with SK-MEL-5.

For `O=C(/C=C1\Nc2ccccc2C(=O)N1c1ccccc1Cl)c1ccccc1`, the GI50 was > 100 µM (inactive) in the assay on SK-MEL-2; > 100 µM (inactive) in the assay with UACC-257; > 100 µM (inactive) with NCI-H226; 76.4 µM (inactive) with MOLT-4; greater than 100 µM in the assay with HCT-15; 88.9 µM (inactive) in the assay on OVCAR-3. Moreover, the GI50 in the assay on ACHN was > 100 µM (inactive); in the assay on KM12 it was 84.1 µM (inactive); in the assay on 786-0, > 100 µM (inactive); with OVCAR-4, 67.5 µM (inactive); with NCI-H522 it was > 100 µM (inactive); with HCT-116, 36.5 µM (inactive). Moreover, the GI50 was 64.7 µM (inactive) with HT-29; > 100 µM (inactive) in the assay with Malme-3M; > 100 µM (inactive) in the assay with A498; > 100 µM (inactive) in the assay on IGROV-1; > 100 µM (inactive) with SF-268; > 100 µM (inactive) in the assay with SK-MEL-5.

For `CN(C)c1nc(NN)c2c(-c3ccccc3)c(-c3ccccc3)oc2n1`, the GI50 is > 100 µM (inactive) with UACC-257; > 100 µM (inactive) with NCI-H226; > 100 µM (inactive) with MOLT-4; greater than 100 µM in the assay with HCT-15; > 100 µM (inactive) in the assay on ACHN; > 100 µM (inactive) in the assay on KM12. Further, the GI50 with 786-0 was > 100 µM (inactive); in the assay with OVCAR-4, 35.1 µM (inactive); in the assay with NCI-H522 it was 68.2 µM (inactive); with T47D, > 100 µM (inactive); in the assay on HCT-116, > 100 µM (inactive); with HT-29, 98.4 µM (inactive). The GI50 in the assay on A498 was > 100 µM (inactive); with IGROV-1, > 100 µM (inactive); with SF-268 it was 89.1 µM (inactive).

As for `COc1ccc(N2C(=O)CC(=O)N(C(=O)COc3ccc(OCC(=O)N4C(=O)CC(=O)N(c5ccc(OC)cc5)C4=S)cc3)C2=S)cc1`, the GI50 was 23.9 µM (inactive) in the assay on SK-MEL-2; 43.9 µM (inactive) in the assay with UACC-257; 30.5 µM (inactive) in the assay on NCI-H226; 32 µM (inactive) in the assay on MOLT-4; 48.6 µM with HCT-15; 41 µM (inactive) in the assay on PC-3. The GI50 in the assay on ACHN is 42.1 µM (inactive); with KM12 it was 15.6 µM (inactive); in the assay with 786-0, 36.5 µM (inactive); in the assay with OVCAR-4, 27 µM (inactive); in the assay with NCI-H522, 35.5 µM (inactive); with HCT-116, 15.7 µM (inactive). Besides, the GI50 was 47.8 µM (inactive) in the assay on HT-29; 68.2 µM (inactive) in the assay with Malme-3M; 61.7 µM (inactive) in the assay on A498; 47.9 µM (inactive) in the assay on IGROV-1; 35.4 µM (inactive) with SF-268; 36.8 µM (inactive) in the assay with SK-MEL-5.

`COc1cc(C2c3cc4c(cc3OC(C)(O)C2C)OCO4)cc(OC)c1OC` (stereo unspecified): the GI50 was 65.2 µM (inactive) with UACC-257; 1.31 µM (inactive) in the assay on NCI-H226; 0.513 µM (active) in the assay with MOLT-4; 0.4 µM with HCT-15; 0.306 µM (active) in the assay on PC-3; 0.316 µM (active) in the assay on OVCAR-3. Besides, the GI50 is 0.938 µM (active) in the assay with ACHN; 0.697 µM (active) in the assay on KM12; 0.708 µM (active) in the assay on 786-0; 0.235 µM (active) with NCI-H522; 0.333 µM (active) with HCT-116; 0.344 µM (active) in the assay with HT-29. Moreover, the GI50 in the assay with Malme-3M was 0.407 µM (active); in the assay with A498 it was 13.9 µM (inactive); in the assay with IGROV-1 it was 0.625 µM (active); in the assay with SF-268 it was 2.69 µM (inactive); with SK-MEL-5, 0.154 µM (active).

For the compound `C/C(=C\c1ccccn1)c1ccccn1`, the GI50 was > 100 µM (inactive) in the assay with SK-MEL-2; > 100 µM (inactive) with UACC-257; > 100 µM (inactive) with MOLT-4; greater than 100 µM with HCT-15; > 100 µM (inactive) in the assay on PC-3; > 100 µM (inactive) in the assay on OVCAR-3. Also, the GI50 in the assay on ACHN, in the assay on KM12, in the assay with 786-0, with OVCAR-4, in the assay with NCI-H522 and in the assay with HCT-116 was > 100 µM (inactive) in each case. Also, the GI50 in the assay with HT-29, in the assay with Malme-3M, with A498, with IGROV-1, with SF-268 and in the assay on SK-MEL-5 was > 100 µM (inactive) in each case.

For `CN1CCN(C(=S)N(C(=O)c2ccco2)C2CCCCC2)CC1`, the GI50 was > 100 µM (inactive) in the assay on SK-MEL-2; > 100 µM (inactive) in the assay with UACC-257; > 100 µM (inactive) in the assay with NCI-H226; > 10 µM (inactive) in the assay on MOLT-4; greater than 100 µM with HCT-15; > 100 µM (inactive) in the assay with OVCAR-3. The GI50 in the assay on ACHN, in the assay with KM12, in the assay with 786-0, in the assay on OVCAR-4, with NCI-H522 and with T47D was > 100 µM (inactive) each time. For the same compound, the GI50 with HT-29, in the assay on Malme-3M, with IGROV-1, with SF-268 and with SK-MEL-5 was > 100 µM (inactive) throughout.

As for `[O-][n+]1c2cc3c(cc2[n+]([O-])c2c(O)cccc21)CN(CCN1CCOCC1)C3`, the GI50 was 20.7 µM (inactive) in the assay on SK-MEL-2; 23.4 µM (inactive) with UACC-257; 41.9 µM (inactive) with NCI-H226; 4.43 µM (inactive) in the assay on MOLT-4; 27.4 µM in the assay with HCT-15; 18.7 µM (inactive) in the assay on OVCAR-3. For the same compound, the GI50 with ACHN was 5.83 µM (inactive); with KM12 it was 16.8 µM (inactive); in the assay with 786-0 it was 16.8 µM (inactive); with OVCAR-4, 62.2 µM (inactive); with NCI-H522 it was 5.36 µM (inactive); in the assay with HCT-116, 11.4 µM (inactive). Also, the GI50 was 16 µM (inactive) in the assay on HT-29; 48.9 µM (inactive) in the assay with Malme-3M; 44.6 µM (inactive) with A498; 12.7 µM (inactive) in the assay on IGROV-1; 11.2 µM (inactive) in the assay with SF-268; 56 µM (inactive) in the assay with SK-MEL-5.

Take `CCc1nnc(CC)n1N1C(=O)CCC1=O`: the GI50 in the assay with SK-MEL-2 is > 100 µM (inactive); in the assay on UACC-257, > 100 µM (inactive); in the assay with MOLT-4, > 100 µM (inactive); in the assay on HCT-15, greater than 100 µM; in the assay with PC-3, > 100 µM (inactive); in the assay with OVCAR-3, > 100 µM (inactive). Further, the GI50 in the assay on ACHN, in the assay on KM12, in the assay with 786-0, in the assay on OVCAR-4, in the assay on NCI-H522 and in the assay on HCT-116 was > 100 µM (inactive) throughout. Further, the GI50 in the assay on HT-29, in the assay on IGROV-1, in the assay on SF-268 and in the assay on SK-MEL-5 was > 100 µM (inactive) each time.

As to `CCOC(=O)C1C=C2O[C@@H]3OC4(CCCCC4)O[C@@H]3C2C2C(=O)CCC(=O)[C@@]12C(=O)OC` (stereo partly specified), the GI50 in the assay with SK-MEL-2 is > 100 µM (inactive); with UACC-257 it was > 100 µM (inactive); with NCI-H226, > 100 µM (inactive); in the assay with MOLT-4, > 100 µM (inactive); in the assay with HCT-15, greater than 100 µM; in the assay with OVCAR-3, 82.4 µM (inactive). Besides, the GI50 with ACHN, with KM12, with 786-0, in the assay on OVCAR-4, with NCI-H522 and in the assay on HCT-116 was > 100 µM (inactive) in each case. For the same compound, the GI50 in the assay with HT-29 is > 10 µM (inactive); in the assay with Malme-3M, > 100 µM (inactive); with A498, > 100 µM (inactive); in the assay on IGROV-1, > 100 µM (inactive); in the assay with SF-268, > 100 µM (inactive); with SK-MEL-5 it was > 100 µM (inactive).

Turning to `COc1cc2c(c(OC)c1OC)-c1ccc(SC)c(=O)cc1[C@@H](NCc1ccccc1[N+](=O)[O-])CC2`, the GI50 was 0.0217 µM (active) in the assay with SK-MEL-2; 0.00561 µM (active) with UACC-257; 0.0234 µM (active) in the assay with NCI-H226; 0.0241 µM (active) with MOLT-4; 0.0113 µM with HCT-15; 0.00428 µM (active) with OVCAR-3. Also, the GI50 in the assay on ACHN was 0.0439 µM (active); in the assay on KM12 it was 0.00406 µM (active); in the assay on 786-0, 0.0246 µM (active); in the assay with OVCAR-4, 0.719 µM (active); with NCI-H522 it was 0.011 µM (active); with HCT-116, 0.00644 µM (active). For the same compound, the GI50 with HT-29 is 0.00391 µM (active); in the assay on Malme-3M, 0.00817 µM (active); with A498, 0.00417 µM (active); in the assay on IGROV-1, 0.0135 µM (active); in the assay with SF-268, 0.0106 µM (active); in the assay with SK-MEL-5, 0.00411 µM (active).
